Our source for the MIC values is patent publication US10030047B2 (Hoffmann-La Roche Inc., priority 2015, dated 2018).

Values after ≈ are worked out from the molar mass of the structure shown.

For this assay, the system named is A. baumannii strain ATCC19606. The assay is described as follows: Minimum inhibitory concentration (MIC) determination, microbroth dilution (CLSI). It counts as cell-based. The following applies: Acinetobacter baumannii; A. baumannii ATCC19606; CAMHB; read after 20 hours; >=80% growth inhibition; read-out: ATCC19606 MIC. The method in brief: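 CLSI broth microdilution in cation-adjusted Mueller Hinton broth with twofold compound dilutions and ~5×10^5 CFU/ml inoculum, incubated at 35±2 °C. MIC read after 20 h as lowest concentration inhibiting ≥80% of growth, by eye and OD 600 nm.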
Background: Dilution methods test growth across graded concentrations, often in twofold steps.
One may read the MIC as the smallest concentration in the dilution series that meets the test's criterion for growth inhibition. As to `CN1C(=O)[C@H](CCCCN)NC(=O)[C@H](CCCN)NCc2ncccc2Sc2c(Cl)ccc(Cl)c2CNC(=O)[C@@H]1Cc1c[nH]c2ccccc12` [Example 104, (11S,14S,17S)-14-(4-Amino-butyl)-11-(3-amino-propyl)-22,25-dichloro-17-(1H-indol-3-ylmethyl)-16-methyl-2-thia-7,10,13,16,19-pentaaza-tricyclo[19.4.0.0*3,8*]pentacosa-1(21),3,5,7,22,24-hexaene-12,15,18-trione], the MIC was found to be 2 µg/mL (≈ 2.7 µM). The figure for `NCCCC[C@@H]1NC(=O)[C@H](CCCN)NCc2cccnc2Sc2c(Cl)ccc(Cl)c2CNC(=O)[C@H](Cc2c[nH]c3ccccc23)NC1=O` [Example 82, (11S,14S,17S)-14-(4-Amino-butyl)-11-(3-amino-propyl)-22,25-dichloro-17-(1H-indol-3-ylmethyl)-2-thia-4,10,13,16,19-pentaaza-tricyclo[19.4.0.0*3,8*]pentacosa-1(25),3(8),4,6,21,23-hexaene-12,15,18-trione] is 4 µg/mL (≈ 5.51 µM); for `CN1C(=O)[C@H](CCCCN)NC(=O)[C@H](CCCN)NCc2nccnc2Sc2c(Cl)ccc(Cl)c2CNC(=O)[C@@H]1Cc1c[nH]c2ccccc12` [Example 110, (11S,14S,17S)-14-(4-Amino-butyl)-11-(3-amino-propyl)-22,25-dichloro-17-(1H-indol-3-ylmethyl)-16-methyl-2-thia-4,7,10,13,16,19-hexaaza-tricyclo[19.4.0.0*3,8*]pentacosa-1(25),3,5,7,21,23-hexaene-12,15,18-trione] it is 0.5 µg/mL (≈ 0.675 µM); for `Cc1[nH]c2ccccc2c1C[C@H]1C(=O)NCc2cc(-c3ccnc(Cl)c3)cc(Cl)c2Sc2ncccc2CN[C@@H](CCCN)C(=O)N[C@@H](CCCCN)C(=O)N1C` [Example 182, (11S,14S,17S)-14-(4-Amino-butyl)-11-(3-amino-propyl)-25-chloro-23-(2-chloro-pyridin-4-yl)-16-methyl-17-(2-methyl-1H-indol-3-ylmethyl)-2-thia-4,10,13,16,19-pentaaza-tricyclo[19.4.0.0*3,8*]pentacosa-1(25),3(8),4,6,21,23-hexaene-12,15,18-trione] it is 0.5 µg/mL (≈ 0.602 µM). Turning to `CN1C(=O)[C@H](COCCN)NC(=O)[C@H](CCCN)NCc2cccnc2Sc2c(Cl)ccc(C(F)(F)F)c2CNC(=O)[C@@H]1Cc1c[nH]c2ccccc12` [Example 120, (11S,14S,17S)-14-(2-Amino-ethoxymethyl)-11-(3-amino-propyl)-25-chloro-17-(1H-indol-3-ylmethyl)-16-methyl-22-trifluoromethyl-2-thia-4,10,13,16,19-pentaaza-tricyclo[19.4.0.0*3,8*]pentacosa-1(25),3,5,7,21,23-hexaene-12,15,18-trione], the MIC is 0.5 µg/mL (≈ 0.645 µM). As for `CN1C(=O)[C@H](CCCCN)NC(=O)[C@H](CCCN)NCc2ccccc2Sc2ccc(Cl)cc2CNC(=O)[C@@H]1Cc1c[nH]c2cc(Cl)ccc12` [Example 18, (12S,15S,18S)-15-(4-Amino-butyl)-18-(3-amino-propyl)-6-chloro-12-(6-chloro-1H-indol-3-ylmethyl)-13-methyl-2-thia-10,13,16,19-tetraaza-tricyclo[19.4.0.0*3,8*]pentacosa-1(21),3,5,7,22,24-hexaene-11,14,17-trione], the MIC was determined as 16 µg/mL (≈ 21.7 µM). Take `Cc1cc(-c2cc(Cl)c3c(c2)CNC(=O)[C@H](Cc2c(C)[nH]c4ccccc24)N(C)C(=O)[C@H](CCCCN)NC(=O)[C@H](CCCN)NCc2cccnc2S3)ccn1` [Example 170, (11S,14S,17S)-14-(4-Amino-butyl)-11-(3-amino-propyl)-25-chloro-16-methyl-17-(2-methyl-1H-indol-3-ylmethyl)-23-(2-methyl-pyridin-4-yl)-2-thia-4,10,13,16,19-pentaaza-tricyclo[19.4.0.0*3,8*]pentacosa-1(25),3(8),4,6,21,23-hexaene-12,15,18-trione]: the MIC is 0.5 µg/mL (≈ 0.617 µM).
